From US9346811B2, “6,7-dihydro-pyrazolo[1,5-a]pyrazin-4-ylamine derivatives useful as inhibitors of beta-secretase (BACE)” (JANSSEN PHARMACEUTICA NV, priority 2011, dated 2016)

Tests used:
[1] = molecular target: recombinant BACE1 protein (Homo sapiens, UniProt P56817); assay: Biochemical FRET based assay; conditions: recombinant BACE1 1 μg/ml, 120 min, pH 5.0; for IC50: read-out: Biochemical FRET based assay pIC50 (converted)
Description: Biochemical FRET Based Assay
This assay is a Fluorescence Resonance Energy Transfer Assay (FRET) based assay. The substrate for this assay is an APP derived 13 amino acids peptide that contains the ‘Swedish’ Lys-Met/Asn-Leu mutation of the amyloid precursor protein (APP) β-secretase cleavage site. This substrate also contains two fluorophores: (7-methoxycoumarin-4-yl)acetic acid (Mca) is a fluorescent donor with excitation wavelength at 320 nm and emission at 405 nm and 2,4-Dinitrophenyl (Dnp) is a proprietary quencher acceptor. […] Upon cleavage by BACE1, the fluorophore Mca is separated from the quenching group Dnp, restoring the full fluorescence yield of the donor. The increase in fluorescence is linearly related to the rate of proteolysis (Koike H et al. J. Biochem. 1999, 126, 235-242). Briefly in a 384-well format recombinant BACE1 protein in a final concentration of 1 μg/ml is incubated for 120 min at room temperature with 10 μm substrate in incubation buffer (40 mM Citrate buffer pH 5.0, 0.04% PEG, 4% DMSO) in the absence or presence of compound. Next the amount of proteolysis is directly measured by fluorescence measurement at T=0 and T=120 (excitation at 320 nm and emission at 405 nm).

[2] = system: Aβ42 produced and secreted into the medium of human neuroblastoma SKNBE2 cells; assay: Cellular αlisa assay in SKNBE2 cells, Aβ42; format: cell-based; conditions: SKNBE2 cells expressing hAPP695, 18 hours incubation; for IC50: Homo sapiens, SKNBE2, 18 h, read-out: Cellular αlisa assay in SKNBE2 cells Aβ42 pIC50 (converted)
Procedure: (§1) Cellular αlisa Assay in SKNBE2 Cells
(§2) In two αlisa assays the levels of Aβtotal and Aβ42 produced and secreted into the medium of human neuroblastoma SKNBE2 cells are quantified. The assay is based on the human neuroblastoma SKNBE2 expressing the wild type Amyloid Precursor Protein (hAPP695). The compounds are diluted and added to these cells, incubated for 18 hours and then measurements of Aβ42 and Aβtotal are taken. Aβtotal and Aβ42 are measured by sandwich αlisa. αlisa is a sandwich assay using biotinylated antibody AbN/25 attached to streptavidin coated beads and antibody Ab4G8 or cAb42/26 conjugated acceptor beads for the detection of Aβtotal and Aβ42 respectively. In the presence of Aβtotal or Aβ42, the beads come into close proximity. The excitation of the Donor beads provokes the release of singlet oxygen molecules that triggers a cascade of energy transfer in the Acceptor beads, resulting in light emission. Light emission is measured after 1 hour incubation (excitation at […] and emission at 615 nm).
(§3) A best-fit curve is fitted by a minimum sum of squares method to the plot of % Controlmin versus compound concentration.

[3] = system: Aβtotal produced and secreted into the medium of human neuroblastoma SKNBE2 cells; assay: Cellular αlisa assay in SKNBE2 cells, Aβtotal; format: cell-based; conditions: SKNBE2 cells expressing hAPP695, 18 hours incubation; for IC50: Homo sapiens, SKNBE2, 18 h, read-out: Cellular αlisa assay in SKNBE2 cells Aβtotal pIC50 (converted)
Procedure: as §1, §2, §3

recombinant BACE1 protein, sequence (P56817 46-501): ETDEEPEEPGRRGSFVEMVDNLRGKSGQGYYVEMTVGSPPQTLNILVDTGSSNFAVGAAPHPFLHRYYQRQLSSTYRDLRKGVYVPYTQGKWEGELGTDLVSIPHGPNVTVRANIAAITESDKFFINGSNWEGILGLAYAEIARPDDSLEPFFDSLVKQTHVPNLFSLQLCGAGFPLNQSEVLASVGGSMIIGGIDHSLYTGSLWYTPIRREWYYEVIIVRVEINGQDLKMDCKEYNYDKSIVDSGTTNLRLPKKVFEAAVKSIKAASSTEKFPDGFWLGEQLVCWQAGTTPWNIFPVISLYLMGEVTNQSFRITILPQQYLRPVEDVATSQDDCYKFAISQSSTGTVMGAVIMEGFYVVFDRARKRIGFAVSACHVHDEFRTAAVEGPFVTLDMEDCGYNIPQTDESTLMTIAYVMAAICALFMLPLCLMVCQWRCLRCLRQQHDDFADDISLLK

SMILES | Biochemical FRET based assay pIC50 [1] | Cellular αlisa assay in SKNBE2 cells Aβ42 pIC50 [2] | Cellular αlisa assay in SKNBE2 cells Aβtotal pIC50 [3] | IC50 [1] [nM] | IC50 [2] [nM] | IC50 [3] [nM]
COc1cnc(C(=O)Nc2ccc(F)c([C@]3(C)Cn4ncc(F)c4C(N)=N3)c2)cn1 [Compound 13, (R)-5-methoxy-pyrazine-2-carboxylic acid [3-(4-amino-3-fluoro-6-methyl-6,7-dihydro-pyrazolo[1,5-a]pyrazin-6-yl)-4-fluoro-phenyl]-amide] |  |  |  | 72.4 | 6.76 | 5.5
NC1=NC(c2cc(NC(=O)c3ccc(F)cn3)ccc2F)(C(F)F)Cn2nccc21 (single isomer, unassigned) [Compound 21, (S*)-5-fluoro-pyridine-2-carboxylic acid [3-(4-amino-6-difluoromethyl-6,7-dihydro-pyrazolo[1,5-a]pyrazin-6-yl)-4-fluoro-phenyl]-amide] |  | <5 | <5 | > 30200 |  | 
CC1(c2cccc(NC(=O)c3ncc(Cl)cc3Cl)c2)Cn2nccc2C(N)=N1 (racemic) [Compound 3, rac-3,5-dichloro-pyridine-2-carboxylic acid [3-(4-amino-6-methyl-6,7-dihydro-pyrazolo[1,5-a]pyrazin-6-yl)-phenyl]-amide] |  |  |  | 46.8 | 3.24 | 3.39
COc1cnc(C(=O)Nc2ccc(F)c(C3(C(F)F)Cn4nccc4C(N)=N3)c2)cn1 (single isomer, unassigned) [Compound 19, (S*)-5-methoxy-pyrazine-2-carboxylic acid [3-(4-amino-6-difluoromethyl-6,7-dihydro-pyrazolo[1,5-a]pyrazin-6-yl)-4-fluoro-phenyl]-amide] |  | 5.28 | 5.13 | 9770 |  | 
CC1(c2cccc(NC(=O)c3ccc(C#N)cn3)c2)Cn2nccc2C(N)=N1 (single isomer, unassigned) [Compound 8, (S*)-5-cyano-pyridine-2-carboxylic acid [3-(4-amino-6-methyl-6,7-dihydro-pyrazolo[1,5-a]pyrazin-6-yl)-phenyl]-amide] |  | 6.13 | 6.13 |  |  | 
CC1(c2cccc(NC(=O)c3ncc(Cl)cc3Cl)c2)Cn2nccc2C(N)=N1 (single isomer, unassigned) [Compound 4, (R*)-3,5-dichloro-pyridine-2-carboxylic acid [3-(4-amino-6-methyl-6,7-dihydro-pyrazolo[1,5-a]pyrazin-6-yl)-phenyl]-amide] |  | 5.84 | 5.84 | 21400 |  | 
COc1cnc(C(=O)Nc2ccc(F)c(C3(C(F)F)Cn4nccc4C(N)=N3)c2)cn1 (racemic) [Compound 17, rac-5-methoxy-pyrazine-2-carboxylic acid [3-(4-amino-6-difluoromethyl-6,7-dihydro-pyrazolo[1,5-a]pyrazin-6-yl)-4-fluoro-phenyl]-amide] |  |  |  | 57.5 | 39.8 | 33.1
NC1=NC(c2cc(NC(=O)c3ccc(F)cn3)ccc2F)(C(F)F)Cn2nccc21 (racemic) [Compound 20, rac-5-fluoro-pyridine-2-carboxylic acid [3-(4-amino-6-difluoromethyl-6,7-dihydro-pyrazolo[1,5-a]pyrazin-6-yl)-4-fluoro-phenyl]-amide] |  |  |  | 66.1 | 85.1 | 66.1
CC1(c2cc(NC(=O)c3ncc(Cl)cc3Cl)ccc2F)Cn2nccc2C(N)=N1 (single isomer, unassigned) [Compound 16, (S*)-3,5-dichloro-pyridine-2-carboxylic acid [3-(4-amino-6-methyl-6,7-dihydro-pyrazolo[1,5-a]pyrazin-6-yl)-4-fluoro-phenyl]-amide] |  | 7.66 | 7.74 | 1050 |  | 
CC1(c2cc(NC(=O)c3ncc(Cl)cc3Cl)ccc2F)Cn2nccc2C(N)=N1 (single isomer, unassigned) [Compound 15, (R*)-3,5-dichloro-pyridine-2-carboxylic acid [3-(4-amino-6-methyl-6,7-dihydro-pyrazolo[1,5-a]pyrazin-6-yl)-4-fluoro-phenyl]-amide] |  | 9.33 | 9.37 | 18.6 |  | 
CC1(c2cccc(NC(=O)c3ncc(Cl)cc3Cl)c2)Cn2nc(C(F)(F)F)cc2C(N)=N1 (single isomer, unassigned) [Compound 12, (S*)-3,5-dichloro-pyridine-2-carboxylic acid [3-(4-amino-6-methyl-2-trifluoromethyl-6,7-dihydro-pyrazolo[1,5-a]pyrazin-6-yl)-phenyl]-amide] |  | 5.64 | 5.75 | 8710 |  | 
COc1cnc(C(=O)Nc2ccc(F)c(C3(C(F)F)Cn4nccc4C(N)=N3)c2)cn1 (single isomer, unassigned) [Compound 18, (R*)-5-methoxy-pyrazine-2-carboxylic acid [3-(4-amino-6-difluoromethyl-6,7-dihydro-pyrazolo[1,5-a]pyrazin-6-yl)-4-fluoro-phenyl]-amide] |  | 7.52 | 7.54 | 22.4 |  | 
CC1(c2cccc(NC(=O)c3ccc(C#N)cn3)c2)Cn2nccc2C(N)=N1 (racemic) [Compound 6, rac-5-cyano-pyridine-2-carboxylic acid [3-(4-amino-6-methyl-6,7-dihydro-pyrazolo[1,5-a]pyrazin-6-yl)-phenyl]-amide] |  |  |  |  | 5.75 | 5.13

Second part, the compound after the results:

Biochemical FRET based assay pIC50 [1] | Cellular αlisa assay in SKNBE2 cells Aβ42 pIC50 [2] | Cellular αlisa assay in SKNBE2 cells Aβtotal pIC50 [3] | IC50 [1] [nM] | IC50 [2] [nM] | IC50 [3] [nM] | SMILES
7.53 | 8.72 | 8.70 |  |  |  | Cc1nc(C(=O)Nc2ccc(F)c(C3(C)Cn4nc(C#N)cc4C(N)=N3)c2)co1 (stereo not drawn) [Compound 43]
6.91 | 7.33 | 7.30 |  |  |  | Cc1nc(C(=O)Nc2ccc(F)c(C3(C)Cn4ncc(F)c4C(N)=N3)c2)c(C(F)(F)F)o1 (stereo not drawn) [Compound 35]
 |  |  | 49 | 1.48 | 1.45 | C[C@@]1(c2cc(NC(=O)c3ccc(C#N)cn3)ccc2F)Cn2nc(C#N)cc2C(N)=N1 [Compound 26, (R)-5-cyano-pyridine-2-carboxylic acid [3-(4-amino-2-cyano-6-methyl-6,7-dihydro-pyrazolo[1,5-a]pyrazin-6-yl)-4-fluoro-phenyl]-amide]
4.97 | 5.58 | 5.61 |  |  |  | COc1cnc(C(=O)Nc2cccc(C3(C)Cn4nc(C(F)(F)F)cc4C(N)=N3)c2)cn1 (single isomer, unassigned) [Compound 31]
7.04 | 7.56 | 7.53 |  |  |  | Cc1nc(C(=O)Nc2ccc(F)c(C3(C)Cn4ncc(F)c4C(N)=N3)c2)c(C)o1 (stereo not drawn) [Compound 36]
7.39 | 8.61 | 8.59 |  |  |  | CC1(c2cc(NC(=O)c3ccc(Cl)cn3)ccc2F)Cn2nc(C(F)F)cc2C(N)=N1 (stereo not drawn) [Compound 39]
7.12 | 8.02 | 7.99 |  |  |  | Cc1nn2c(c1F)C(N)=NC(C)(c1cc(NC(=O)c3ccn(C(F)F)n3)ccc1F)C2 (stereo not drawn) [Compound 42]
 |  |  |  | 1.32 | 1.35 | C[C@@]1(c2cc(NC(=O)c3cnn(C(F)F)c3)ccc2F)Cn2nc(C#N)cc2C(N)=N1 [Compound 25, (R)-1-difluoromethyl-1H-pyrazole-4-carboxylic acid [3-(4-amino-2-cyano-6-methyl-6,7-dihydro-pyrazolo[1,5-a]pyrazin-6-yl)-4-fluoro-phenyl]-amide]
